# Article PMC10562782 (iScience, 2023)
# Tests used:
# Type in all cases: binding
# [1] = target: T1, CtUGGTGT24 (UDP-glucose glycoprotein glucosyltransferase, catalytic domain) (Thermochaetoides thermophila, UniProt G0SB58); test: […] Å co-crystal structure
# T1 sequence (G0SB58 1187-1473): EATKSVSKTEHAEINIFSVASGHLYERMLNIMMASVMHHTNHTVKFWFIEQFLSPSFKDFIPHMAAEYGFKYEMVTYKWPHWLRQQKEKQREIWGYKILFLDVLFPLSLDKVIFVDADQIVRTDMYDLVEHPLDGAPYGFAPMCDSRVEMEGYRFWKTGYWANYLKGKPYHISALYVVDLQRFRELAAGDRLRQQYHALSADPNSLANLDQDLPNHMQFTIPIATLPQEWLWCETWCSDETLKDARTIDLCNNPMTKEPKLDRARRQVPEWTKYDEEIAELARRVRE
# human UGGT1 = human UGGT1 (Homo sapiens, UniProt Q9NYU2); test: STD NMR
# Chain of human UGGT1 (Q9NYU2 43-1551): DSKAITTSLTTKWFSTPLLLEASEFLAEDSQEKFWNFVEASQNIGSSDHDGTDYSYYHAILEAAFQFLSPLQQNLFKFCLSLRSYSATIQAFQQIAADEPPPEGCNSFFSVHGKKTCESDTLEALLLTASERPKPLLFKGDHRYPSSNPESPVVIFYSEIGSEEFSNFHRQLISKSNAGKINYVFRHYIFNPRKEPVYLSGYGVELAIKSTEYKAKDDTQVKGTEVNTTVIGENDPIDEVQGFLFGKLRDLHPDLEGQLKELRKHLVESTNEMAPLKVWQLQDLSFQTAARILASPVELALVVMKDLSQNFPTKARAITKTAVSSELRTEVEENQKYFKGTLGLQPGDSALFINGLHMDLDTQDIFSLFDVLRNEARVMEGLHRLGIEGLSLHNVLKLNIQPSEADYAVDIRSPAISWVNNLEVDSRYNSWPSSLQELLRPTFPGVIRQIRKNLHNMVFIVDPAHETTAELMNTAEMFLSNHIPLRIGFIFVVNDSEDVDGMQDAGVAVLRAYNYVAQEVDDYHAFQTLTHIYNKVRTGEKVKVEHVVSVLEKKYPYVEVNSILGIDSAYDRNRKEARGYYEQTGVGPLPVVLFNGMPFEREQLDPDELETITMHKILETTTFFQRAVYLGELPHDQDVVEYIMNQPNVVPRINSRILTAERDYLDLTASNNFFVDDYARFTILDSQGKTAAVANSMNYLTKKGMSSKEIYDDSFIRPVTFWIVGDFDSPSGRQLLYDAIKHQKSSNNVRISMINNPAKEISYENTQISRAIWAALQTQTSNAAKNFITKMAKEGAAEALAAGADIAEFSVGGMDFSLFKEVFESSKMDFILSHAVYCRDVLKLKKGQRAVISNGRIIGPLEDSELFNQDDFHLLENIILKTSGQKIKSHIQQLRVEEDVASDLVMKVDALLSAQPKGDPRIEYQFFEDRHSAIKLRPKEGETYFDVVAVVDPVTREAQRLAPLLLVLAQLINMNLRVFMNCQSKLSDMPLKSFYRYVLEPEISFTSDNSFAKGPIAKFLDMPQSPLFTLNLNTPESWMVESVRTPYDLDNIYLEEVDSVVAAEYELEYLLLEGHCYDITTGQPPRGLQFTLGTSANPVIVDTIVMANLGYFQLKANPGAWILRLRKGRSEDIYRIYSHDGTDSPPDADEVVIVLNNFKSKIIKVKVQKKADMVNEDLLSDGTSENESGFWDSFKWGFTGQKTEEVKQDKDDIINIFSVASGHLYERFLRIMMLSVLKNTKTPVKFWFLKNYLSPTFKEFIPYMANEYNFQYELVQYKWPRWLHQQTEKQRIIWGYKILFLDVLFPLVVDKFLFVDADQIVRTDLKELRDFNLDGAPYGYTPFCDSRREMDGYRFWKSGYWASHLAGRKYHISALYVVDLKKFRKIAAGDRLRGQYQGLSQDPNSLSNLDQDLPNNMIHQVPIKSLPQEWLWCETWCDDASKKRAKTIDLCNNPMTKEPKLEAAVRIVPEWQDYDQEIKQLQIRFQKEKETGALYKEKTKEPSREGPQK
# [2] = target: T1, CtUGGTGT24 (UDP-glucose glycoprotein glucosyltransferase, catalytic domain); test: co-crystal structure
Kd [1] [µM],Kd (human UGGT1) [µM],Compound,co-crystal structure (X-ray) [2]
47 ± 0.7,613,"Oc1ccc(CN2CCOCC2)c2cccnc12 [5M-8OH-Q, 5-[(morpholin-4-yl)methyl]quinolin-8-ol]",–
–,–,O=c1ccn([C@@H]2O[C@H](COP(=O)(O)OP(=O)(O)O[C@H]3O[C@H](CO)[C@@H](O)[C@H](O)[C@H]3F)[C@@H](O)[C@H]2O)c(=O)[nH]1 [U2F],In the ^U2FCtUGGTGT24 structure (PDB ID 7ZLU) these two water molecules are replaced by an O atom
